Laboratory results taken from US11999723B2, “Pyrazole-containing macrophage migration inhibitory factor inhibitors” (priority 2018, dated 2024).
≈ marks a conversion by molar mass, not a printed value. Where “and” joins values, the source holds several entries; their conditions need not be identical. Equal values may be shown once. Read-outs that look alike come from different tables or passages of the source.

Tests used:
MIF = MIF (Homo sapiens (Human), UniProt P14174); experiment: HPP tautomerase assay (inhibition of the tautomerase activity of MIF); assay type: biochemical
Experimental: Inhibition of the tautomerase activity of MIF was measured using the substrate 4-hydroxyphenyl pyruvic acid (HPP) in a procedure largely adapted from previous reports. A solution of HPP (10 mM) in acetate buffer (0.5 M ammonium acetate, pH adjusted to 6.0) was prepared and allowed to incubate overnight in the dark at room temperature to allow for equilibration of the keto and enol forms. Following the incubation period, the HPP solution was stored at 4° C. and used for no more than a week. […] A negative control (containing water and DMSO in lieu of protein and inhibitor, respectively) and a positive control (containing DMSO in lieu of inhibitor) were also prepared. The reaction began upon the addition of HPP solution (final concentration: 1.0 mM and 2.5 mM). […] Absorbance was measured three times for each [inhibitor]-[HPP] combination. […] Reported Ki values represent the average value obtained from two assays performed on different days. (R)-ISO-1 (purchased from Santa Cruz Biotechnology) was used as a control.
Recombinant human MIF was expressed and purified according to published protocols. Briefly, for the purification of MIF, E. coli cell pellets were suspended in lysis buffer (20 mM Tris, pH 7.5; 20 mM sodium chloride; 10% glycerol; 2 mM magnesium chloride; 1 cOmplete mini protease inhibitor cocktail tablet per 250 mL of buffer). The solution was sonicated and centrifuged at 27,000G for 30 mins. The supernatant was filtered through a 0.22 μm syringe filter and loaded on a GE Healthcare Hi-Trap SP HP column in sequence with a GE Healthcare Hi-Trap Q SP column equilibrated with a buffer composed of 20 mM NaCl and 20 mM Tris, pH 7.5. […] To achieve highest purity, the flow-through was further purified with a GE Healthcare Superdex 200 column. The purified protein was concentrated with a 10 kDa centrifugal filter unit to 30 mg/mL, flash-frozen in liquid nitrogen, and stored at −80° C.
As in prior studies, the inhibition constants Ki were determined using HPP as the substrate. […] In addition, the aqueous solubilities of several compounds were measured with a shake-flask procedure.

[1] = Aqueous solubility, shake-flask method; assay type: physicochemical; conditions: 30 °C, aqueous buffer, thermodynamic from solid; Britton-Robinson buffer at pH 6.5
Experimental: Aqueous solubility values of selected compounds were obtained via the shake-flask method. The solid sample (1-4 mg) was suspended in 1.5-2.0 mL Britton-Robinson (BR) buffer (0.04 M acetic acid, 0.04 M phosphoric acid, 0.04 M boric acid, pH 6.5). The mixture, containing excess undissolved compound, was stirred at 30° C. for 48 hours. The saturated solution was separated from the precipitate by filtration through a 0.45 μm polyethersulfone membrane (VWR International). The filtrate was diluted with BR buffer if necessary, then cut with an equal volume of DMSO. UV-vis absorbance was measured with an Agilent 8453 UV-visible Spectroscopy System (200-900 nm). Calibration curves were prepared with sample concentrations ranging from 0.24 μg/mL-0.25 mg/mL in 50:50 DMSO/BR buffer. Reported solubility results are the average values of two shake-flask experiments run in parallel. Piroxicam (purchased from Sigma-Aldrich) was used as a control, using BR buffer at pH 3.73.
The compounds reported here are listed in Table 2 along with the results from the tautomerase assay. The identity of assayed compounds was confirmed by ^1H and ^13C NMR and high-resolution mass spectrometry; HPLC analyses established purity as >95%. As in prior studies, the inhibition constants Ki were determined using HPP as the substrate. Inhibitory activity is monitored by measuring formation of the borate complex of the enol product at 305 nm using a Tecan Infinite F500 plate reader. In addition, the aqueous solubilities of several compounds were measured with a shake-flask procedure. Saturated solutions are filtered (polyethersulfone syringe, 0.2 μm pore) and analyzed by UV-vis spectroscopy (Agilent 8453).

[2] = HPP as substrate, MIF tautomerase, read-out: Experimental inhibition constants, Ki
[3] = Table 3, HPP as substrate, unit inferred, read-out: HPP Ki

Chain of MIF (P14174 2-115): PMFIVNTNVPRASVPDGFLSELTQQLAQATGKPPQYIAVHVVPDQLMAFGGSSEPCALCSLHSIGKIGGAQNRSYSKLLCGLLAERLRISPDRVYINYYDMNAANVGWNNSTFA

| Compound | Ki (MIF; [3]) [µM] | also measured |
| --- | --- | --- |
| O=C(O)c1cc(-c2cn[nH]c2)ccc1Oc1ccc2ccccc2c1 [Compound 8g, 2-(Naphthalen-2-yloxy)-5-(1H-pyrazol-4-yl)benzoic acid] | – | Ki (MIF; [2]): 4.3 µM; solubility at 48 h [1]: 739 µg/mL (≈ 2240 µM) |
| NS(=O)(=O)c1cc(-c2cn[nH]c2)ccc1Oc1ccc2ccccc2c1 [Compound 8i, 2-(Naphthalen-2-yloxy)-5-(1H-pyrazol-4-yl)benzenesulfonamide] | – | Ki (MIF; [2]): 5.6 µM; solubility at 48 h [1]: 55.2 µg/mL (≈ 151 µM) |
| O=C(O)c1cc(-c2c[nH]nc2F)ccc1Oc1ccc2ccccc2c1 [Compound 8n, 5-(3-Fluoro-1H-pyrazol-4-yl)-2-(naphthalen-2-yloxy)benzoic acid] | – | solubility at 48 h [1]: 681 µg/mL (≈ 1960 µM) |
| CCc1ccc2c(C3CC3)cc(Oc3ccc(-c4c[nH]nc4F)cc3C(=O)O)cc2c1 [Compound 8s, 2-((4-Cyclopropyl-7-ethylnaphthalen-2-yl)oxy)-5-(3-fluoro-1H-pyrazol-4-yl)benzoic acid] | – | Ki (MIF; [2]): 0.066 µM |
| O=C(O)c1cc(-c2c[nH]nc2F)ccc1Oc1ccc(-c2ccccc2)cc1 [Compound 8t, 2-([1,1′-Biphenyl]-4-yloxy)-5-(3-fluoro-1H-pyrazol-4-yl)benzoic acid] | – | Ki (MIF; [2]): 0.35 µM |
| O=C(O)c1cc(-c2c[nH]nc2F)ccc1Oc1cccc(-c2ccccc2)c1 [Compound 8u, 2-([1,1′-Biphenyl]-3-yloxy)-5-(3-fluoro-1H-pyrazol-4-yl)benzoic acid] | – | Ki (MIF; [2]): 0.13 µM |
| Cc1cc(C)cc(-c2cccc(Oc3ccc(-c4c[nH]nc4F)cc3C(=O)O)c2)c1 [Compound 8v, 2-((3′,5′-Dimethyl-[1,1′-biphenyl]-3-yl)oxy)-5-(3-fluoro-1H-pyrazol-4-yl)benzoic acid] | – | Ki (MIF; [2]): 0.24 µM |
| CCOc1ccc(-c2cccc(Oc3ccc(-c4c[nH]nc4F)cc3C(=O)O)c2)cc1 [Compound 8w, 2-((4′-Ethoxy-[1,1′-biphenyl]-3-yl)oxy)-5-(3-fluoro-1H-pyrazol-4-yl)benzoic acid] | – | Ki (MIF): ~0.07 µM; Ki (MIF; [2]): 0.075 µM; solubility at 48 h [1]: 1.7 ± 0.7 µg/mL (≈ 4.06 µM) |
| O=C(O)c1cc(-c2c[nH]nc2F)ccc1Oc1cccc(-c2ccc(OCCCN3CCOCC3)cc2)c1 [Compound 8x, 5-(3-Fluoro-1H-pyrazol-4-yl)-2-((4′-(3-morpholinopropoxy)-[1,1′-biphenyl]-3-yl)oxy)benzoic acid] | – | solubility at 48 h [1]: 34.6 µg/mL and 67 µM |
| O=C(O)c1cc(-c2c[nH]nc2F)ccc1Oc1cccc(-c2ncccn2)c1 [Compound 9aa, 5-(3-fluoro-1H-pyrazol-4-yl)-2-(3-(pyrimidin-2-yl)phenoxy)benzoic acid] | 0.23 | – |
| O=C(O)c1cc(-c2c[nH]nc2F)ccc1Oc1cccc(-c2ccc(CCN3CCOCC3)cc2)c1 [Compound 9bb, 5-(3-fluoro-1H-pyrazol-4-yl)-2-((4′-(2-morpholinoethyl)-[1,1′-biphenyl]-3-yl)oxy)benzoic acid] | 0.33 | – |
| Cc1n[nH]cc1-c1ccc(Oc2ccc3ccccc3c2)c(C(=O)O)c1 [Compound 9cc, 5-(3-methyl-1H-pyrazol-4-yl)-2-(naphthalen-2-yloxy)benzoic acid] | 15 | – |
| Cc1ccc(-c2cn[nH]c2)cc1C(=O)O [Compound 9e, 2-methyl-5-(1H-pyrazol-4-yl)benzoic acid] | 60 | – |
| O=C(O)c1cc(-c2cn[nH]c2)ccc1Oc1cccc(Cl)c1 [Compound 9f, 2-(3-chlorophenoxy)-5-(1H-pyrazol-4-yl)benzoic acid] | 20 | – |
| O=C(O)c1cc(-c2cn[nH]c2)ccc1Oc1ccc(Cl)cc1 [Compound 9g, 2-(4-chlorophenoxy)-5-(1H-pyrazol-4-yl)benzoic acid] | 8.4 | – |
| COc1ccc(Oc2ccc(-c3cn[nH]c3)cc2C(=O)O)cc1 [Compound 9h, 2-(4-methoxyphenoxy)-5-(1H-pyrazol-4-yl)benzoic acid] | 2.3 | – |

| Compound | Ki (MIF; [3]) [µM] | also measured |
| --- | --- | --- |
| COc1cccc(Oc2ccc(-c3cn[nH]c3)cc2C(=O)O)c1 [Compound 9i, 2-(3-methoxyphenoxy)-5-(1H-pyrazol-4-yl)benzoic acid] | 2.5 | – |
| CC(=O)NCCc1ccc(Oc2ccc(-c3cn[nH]c3)cc2C(=O)O)cc1 [Compound 9l, 2-(4-(2-acetamidoethyl)phenoxy)-5-(1H-pyrazol-4-yl)benzoic acid] | 11 | – |
| O=C(O)c1cc(-c2cn[nH]c2)ccc1Oc1cccc2ccoc12 [Compound 9m, 2-(benzofuran-7-yloxy)-5-(1H-pyrazol-4-yl)benzoic acid] | 3.7 | – |
| O=C(O)c1cccc(Oc2ccc(-c3cn[nH]c3)cc2C(=O)O)c1 [Compound 9n, 2-(3-carboxyphenoxy)-5-(1H-pyrazol-4-yl)benzoic acid] | 9.4 | – |
| O=C(O)c1cc(-c2cn[nH]c2)ccc1Oc1ccc2occc2c1 [Compound 9o, 2-(benzofuran-5-yloxy)-5-(1H-pyrazol-4-yl)benzoic acid] | 3.8 | – |
| O=C(O)c1cc(-c2cn[nH]c2)ccc1Oc1ccc2ccoc2c1 [Compound 9p, 2-(benzofuran-6-yloxy)-5-(1H-pyrazol-4-yl)benzoic acid] | 1.5 | – |
| O=C(O)c1cc(-c2cn[nH]c2)ccc1Oc1cc2c3c(cccc3c1)C=C2 [Compound 9q, 2-(acenaphthylen-4-yloxy)-5-(1H-pyrazol-4-yl)benzoic acid] | 1.5 | – |
| O=C(O)c1cc(-c2cn[nH]c2)ccc1[S+]([O-])c1ccccc1 (stereo not drawn) [Compound 9r, 2-(phenylsulfinyl)-5-(1H-pyrazol-4-yl)benzoic acid] | 13 | – |
| O=C(O)c1cc(-c2c[nH]nc2F)ccc1Oc1ccc2ccoc2c1 [Compound 9s, 2-(benzofuran-6-yloxy)-5-(3-fluoro-1H-pyrazol-4-yl)benzoic acid] | 0.57 | – |
| O=C(O)c1cc(-c2c[nH]nc2F)ccc1Oc1cccc(F)c1 [Compound 9t, 5-(3-fluoro-1H-pyrazol-4-yl)-2-(3-fluorophenoxy)benzoic acid] | 2.1 | – |
| Cc1ccc2ccc(Oc3ccc(-c4cn[nH]c4)cc3C(=O)O)cc2c1 [Compound 9u, 2-((7-methylnaphthalen-2-yl)oxy)-5-(1H-pyrazol-4-yl)benzoic acid] | 1.9 | – |
| O=C(O)c1cc(-c2c[nH]nc2F)ccc1Oc1cc2c3c(cccc3c1)CC2 [Compound 9v, 2-((1,2-dihydroacenaphthylen-4-yl)oxy)-5-(3-fluoro-1H-pyrazol-4-yl)benzoic acid] | 0.1 | – |
| O=C(O)c1cc(-c2c[nH]nc2F)ccc1Oc1cccc(C(F)(F)F)c1 [Compound 9w, 5-(3-fluoro-1H-pyrazol-4-yl)-2-(3-(trifluoromethyl)phenoxy) benzoic acid] | 0.71 | – |
| O=C(O)c1cc(-c2c[nH]nc2F)ccc1Oc1ccc2ccc(C3CC3)cc2c1 [Compound 9x, 2-((7-cyclopropylnaphthalen-2-yl)oxy)-5-(3-fluoro-1H-pyrazol-4-yl)benzoic acid] | 0.15 | – |
| O=C(O)c1cc(-c2c[nH]nc2F)ccc1Oc1ccc2c(c1)CCCC2 [Compound 9y, 5-(3-fluoro-1H-pyrazol-4-yl)-2-((5,6,7,8-tetrahydronaphthalen-2-yl)oxy)benzoic acid] | 0.26 | – |
| O=C(O)c1cc(-c2c[nH]nc2F)ccc1Oc1ccc2c(C3CC3)cccc2c1 [Compound 9z, 2-((5-cyclopropylnaphthalen-2-yl)oxy)-5-(3-fluoro-1H-pyrazol-4-yl)benzoic acid] | 0.11 | – |
